Experimental data reported in the Deep4Chem optical property database.

Test: solvent given as SMILES

In the case of `O=Cc1ccc(C2=C3C=c4c(oc5ccccc45)=[N+]3[B-](F)(F)n3c2cc2c4ccccc4oc23)cc1`, the emission maximum (in C1CCCCC1) is reported as 612 nm, the emission maximum (in C1CCOC1) is reported as 615 nm and the emission maximum (in CC#N) is reported as 611 nm. It also gave an emission maximum (in CCOC(C)=O) of 610 nm, an emission maximum (in CN(C)C=O) of 615.5 nm and an emission maximum (in CO) of 609.5 nm. It also gave an emission maximum (in Cc1ccccc1) of 620.5 nm and an emission maximum (in ClCCl) of 618.5 nm.

For `c1ccc(-c2ccc(-c3nc(-c4ccccc4)c(N(c4ccccc4)c4ccccc4)[se]3)cc2)cc1`, the emission maximum (in ClC(Cl)Cl) was 468 nm.

For `CCC1(CC)c2cc(N(c3ccccc3)c3ccccc3)ccc2-c2c1c1c(c3c2C(CC)(CC)c2cc(N(c4ccccc4)c4ccccc4)ccc2-3)C(CC)(CC)c2cc(N(c3ccccc3)c3ccccc3)ccc2-1`, the emission maximum (in C1CCOC1) was 390 nm, the emission maximum (in CC#N) was 404 nm and the emission maximum (in CC(C)=O) was 395 nm. For the same compound, the emission maximum (in CCCCCC) was 382 nm and the emission maximum (in Cc1ccccc1) was 386 nm.

For `CC1(C)Nc2ccccc2-c2[nH]c3ccccc3c(=O)c21`, the emission maximum (in C1CCOC1) was 483 nm, the emission maximum (in CC#N) was 507 nm and the emission maximum (in CCCCO) was 521 nm. For the same compound, the emission maximum (in CCCO) was 522 nm, the emission maximum (in CCO) was 523 nm and the emission maximum (in CCOC(C)=O) was 491 nm. The emission maximum (in CN(C)C=O) was 506 nm, the emission maximum (in CO) was 531 nm and the emission maximum (in CS(C)=O) was 510 nm. The emission maximum (in Cc1ccccc1) was 471 nm, the emission maximum (in ClC(Cl)(Cl)Cl) was 460 nm and the emission maximum (in ClCCl) was 491 nm. It also gave an emission maximum (in O) of 552 nm and an emission maximum (in c1ccccc1) of 474 nm.

`CCCCCCCCCCCCOc1cc(C(=O)Nc2ccc(-c3ccc4c(c3)C(=O)c3ccccc3-4)cc2)cc(OCCCCCCCCCCCC)c1OCCCCCCCCCCCC` gave an emission maximum (in C1CCOC1) of 529 nm.

Compound `CC(C)(C)c1ccc2c(c1)c1cc(C(C)(C)C)ccc1n2-c1ccc(S(=O)(=O)c2cccc(S(=O)(=O)c3ccc(-n4c5ccc(C(C)(C)C)cc5c5cc(C(C)(C)C)ccc54)cc3)c2)cc1` has an emission maximum (in Cc1ccccc1) of 422 nm.

Compound `N#Cc1cccc(N)c1` has an emission maximum (in C1CCCCC1) of 343 nm, an emission maximum (in CC#N) of 369.45 nm and an emission maximum (in CCCCCC) of 339.87 nm. The emission maximum (in CCO) was 384 nm, the emission maximum (in O) was 392 nm and the emission maximum (in OCC(F)(F)F) was 380 nm.

`CCCCn1c2ccc(C#Cc3cccs3)cc2c2c1c1c3ccc(C#Cc4cccs4)cc3n(CCCC)c1c1c3ccc(C#Cc4cccs4)cc3n(CCCC)c21` gave an emission maximum (in C1CCOC1) of 430 nm.

With `Cc1cc(N(C)C)cc(C)c1/C=C/C=C/c1ccc(C#N)cc1` the emission maximum (in CC#N) was 599 nm, the emission maximum (in CCCCCC) was 442 nm and the emission maximum (in CCOCC) was 527 nm.

With `CCCCCCOc1ccc(C#Cc2ccc(-c3ccc(-c4ccc(C#Cc5ccc(OCCCCCC)c(OCCCCCC)c5)s4)c4nsnc34)s2)cc1OCCCCCC` the emission maximum (in C1CCCCC1) was 600 nm, the emission maximum (in CCOC(C)=O) was 635 nm and the emission maximum (in CN(C)C=O) was 666 nm. For the same compound, the emission maximum (in COc1ccccc1) was 636 nm, the emission maximum (in Cc1ccccc1) was 620 nm and the emission maximum (in ClC(Cl)Cl) was 648 nm. The emission maximum (in ClCCCl) was 650 nm and the emission maximum (in ClCCl) was 649 nm.

`CC1(C)c2cc(/C=C/c3nc(/C=C/c4ccc5c(c4)C(C)(C)c4cc(N(c6ccccc6)c6ccccc6)ccc4-5)nc(/C=C/c4ccc5c(c4)C(C)(C)c4cc(N(c6ccccc6)c6ccccc6)ccc4-5)n3)ccc2-c2ccc(N(c3ccccc3)c3ccccc3)cc21` gave an emission maximum (in C1CCOC1) of 555 nm.

With `COc1ccc(-c2ccc(-c3ccc(C#N)cc3)cc2)cc1` the emission maximum (in C1CCCCC1) was 377 nm.

In the case of `COc1ccc(C2=CC3=C(c4c(C)cc(C)cc4C)c4cc(-c5ccc(OC)cc5)c(-c5ccc(OC)cc5)n4[B-](F)(F)[N+]3=C2c2ccc(OC)cc2)cc1`, the emission maximum (in C1CCCCC1) is reported as 666 nm, the emission maximum (in C1CCOC1) is reported as 674 nm and the emission maximum (in CC#N) is reported as 673 nm. The emission maximum (in Cc1ccccc1) was 677 nm and the emission maximum (in ClCCl) was 672 nm.

`O=C(O)COc1cccc(OCC(=O)O)c1-c1c2ccc(=[N+]3CCCCC3)cc-2oc2cc(N3CCCCC3)ccc12` gave an emission maximum (in CCO) of 580 nm and an emission maximum (in O) of 594 nm.

`C=CCOC(=O)C(C#N)=C1C=C(/C=C/c2ccc(N(C)C)cc2)OC(/C=C/c2ccc(N(C)C)cc2)=C1` gave an emission maximum (in C1CCOC1) of 595 nm, an emission maximum (in C1COCCO1) of 564 nm and an emission maximum (in CC#N) of 624 nm. It also gave an emission maximum (in CN(C)C=O) of 616 nm, an emission maximum (in Cc1ccccc1) of 556 nm and an emission maximum (in ClC(Cl)Cl) of 585 nm. It also gave an emission maximum (in ClCCCl) of 614 nm and an emission maximum (in ClCCl) of 601 nm.
